Test results published in the supplement of paper PMC4862054.

Columns and labels:
Details in all cases: incubation time: 72 h
[1] = test system: HCC1937; experiment: normalised response (% of control), CellTiter-Glo; higher = more viable cells (100 = DMSO, 0 = benzethonium chloride kill control)
How it was run: (§1)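 Normalised signals at single concentrations make up the values. They come from breast cancer cell lines seeded (20 µl suspension) into 384-well plates with compound at 5 concentrations in 10-fold steps over a compound-specific 10,000-fold range, incubated 72 h, and read for CellTox Green fluorescence then CellTiter-Glo luminescence. Each plate was normalised to 0.1 % DMSO (100) and a positive kill control (0).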

[2] = test system: MDA-MB-231; experiment: as above
How it was run: as §1

[3] = test system: BT-549; experiment: as above
How it was run: as §1

[4] = test system: BT-474; experiment: as above
How it was run: as §1

[5] = test system: CAL-85-1; experiment: as above
How it was run: as §1

[6] = test system: MDA-MB-436; experiment: as above
How it was run: as §1

[7] = test system: MDA-MB-453; experiment: as above
How it was run: as §1

[8] = test system: CAL-120; experiment: as above
How it was run: as §1

[9] = test system: MFM-223; experiment: as above
How it was run: as §1

[10] = test system: MDA-MB-468; experiment: as above
How it was run: as §1

[11] = test system: CAL-148; experiment: as above
How it was run: as §1

[12] = test system: SK-BR-3; experiment: as above
How it was run: as §1

[13] = test system: DU-4475; experiment: as above
How it was run: as §1

[14] = test system: HDQ-P1; experiment: as above
How it was run: as §1

[15] = test system: MCF-10A; experiment: as above
How it was run: as §1

[16] = test system: CAL-51; experiment: as above
How it was run: as §1

[17] = test system: Hs578T; experiment: as above
How it was run: as §1

[18] = test system: HCC1599; experiment: as above
How it was run: as §1

[19] = test system: HCC1143; experiment: as above
How it was run: as §1

[20] = test system: HCC1937; experiment: normalised response (% of control), CellTox Green; higher = less cell death (100 = DMSO, 0 = benzethonium chloride kill control)
How it was run: as §1

[21] = test system: MDA-MB-231; experiment: as above
How it was run: as §1

[22] = test system: BT-549; experiment: as above
How it was run: as §1

[23] = test system: BT-474; experiment: as above
How it was run: as §1

[24] = test system: CAL-85-1; experiment: as above
How it was run: as §1

[25] = test system: MDA-MB-436; experiment: as above
How it was run: as §1

[26] = test system: MDA-MB-453; experiment: as above
How it was run: as §1

[27] = test system: CAL-120; experiment: as above
How it was run: as §1

[28] = test system: MFM-223; experiment: as above
How it was run: as §1

[29] = test system: MDA-MB-468; experiment: as above
How it was run: as §1

[30] = test system: CAL-148; experiment: as above
How it was run: as §1

[31] = test system: DU-4475; experiment: as above
How it was run: as §1

[32] = test system: HDQ-P1; experiment: as above
How it was run: as §1

[33] = test system: MCF-10A; experiment: as above
How it was run: as §1

[34] = test system: CAL-51; experiment: as above
How it was run: as §1

[35] = test system: Hs578T; experiment: as above
How it was run: as §1

[36] = test system: HCC1599; experiment: as above
How it was run: as §1

[37] = test system: HCC1143; experiment: as above
How it was run: as §1

SMILES | normalised response [1] | normalised response [2] | normalised response [3] | normalised response [4] | normalised response [5] | normalised response [6] | normalised response [7] | normalised response [8] | normalised response [9] | normalised response [10] | normalised response [11] | normalised response [12] | normalised response [13] | normalised response [14] | normalised response [15] | normalised response [16] | normalised response [17] | normalised response [18] | normalised response [19] | normalised response [20] | normalised response [21] | normalised response [22] | normalised response [23] | normalised response [24] | normalised response [25] | normalised response [26] | normalised response [27] | normalised response [28] | normalised response [29] | normalised response [30] | normalised response [31] | normalised response [32] | normalised response [33] | normalised response [34] | normalised response [35] | normalised response [36] | normalised response [37]
CN(C)/N=N/c1[nH]cnc1C(N)=O [Dacarbazine] (100 nM) | 102% | 107% | 115% | 96.8% | 106% | 102% | 103% | 101% | 105% | 100% | 105% | 107% | 105% | 98.5% | 100% | 101% | 103% | 92% | 112% | 106% | 101% | 96.7% | 101% | 105% | 100% | 99.6% | 101% | 105% | 85.4% | 106% | 102% | 105% | 107% | 110% | 79.5% | 101% | 82.8%
Cc1ccc(-n2nc(C(C)(C)C)cc2NC(=O)Nc2ccc(OCCN3CCOCC3)c3ccccc23)cc1 [Doramapimod] (100 nM) | 89.9% | 96.5% | 106% | 94.2% | 92.4% | 100% | 99.4% | 99.4% | 91.8% | 89.6% | 79.7% | 90.8% | 93.7% | 93% | 85.3% | 99.5% | 98.7% | 93.7% | 97.1% | 97% | 82.1% | 77.5% | 94.5% | 85.4% | 98.5% | 98.1% | 95.8% | 99.4% | 89% | 100% | 97.7% | 101% | 93.5% | 101% | 105% | 97.4% | 104%
N#CCNC(=O)c1ccc(-c2ccnc(Nc3ccc(N4CCOCC4)cc3)n2)cc1 [Momelotinib] (100 nM) | 97.8% | 94.8% | 102% | 92.1% | 101% | 99.1% | 110% | 97.2% | 94.8% | 90% | 94.1% | 95.9% | 95.9% | 105% | 85.6% | 70.4% | 102% | 112% | 117% | 94.6% | 53.8% | 104% | 100% | 102% | 104% | 101% | 98.2% | 81.4% | 168% | 97.8% | 97.5% | 102% | 66.3% | 83% | 93.5% | 89.7% | 78.1%
N[C@@H](CSC(c1ccccc1)(c1ccccc1)c1ccccc1)C(=O)O [S-trityl-L-cysteine] (400 nM) | 98.2% | 101% | 100% | 102% | 102% | 98.9% | 104% | 104% | 103% | 105% | 102% | 93.5% | 101% | 99% | 92.4% | 105% | 97.3% | 112% | 102% | 61.4% | 104% | 71.8% | 94.5% | 99.5% | 72.6% | 102% | 97.1% | 102% | 125% | 80.7% | 97.9% | 109% | 109% | 110% | 79.2% | 101% | 111%
CC(=O)Nc1ccc(C(=O)Nc2ccccc2N)cc1 [Tacedinaline] (10 nM) | 94.8% | 98.5% | 102% | 101% | 103% | 96.9% | 107% | 102% | 101% | 104% | 105% | 95.3% | 99.6% | 96.1% | 101% | 86.8% | 90.1% | 104% | 99.7% | 97.9% | 108% | 85.9% | 96.6% | 105% | 80.4% | 89.7% | 98.8% | 97.2% | 133% | 95% | 101% | 104% | 104% | 83.3% | 106% | 99.9% | 96.9%
O=C1CCC(N2C(=O)c3ccccc3C2=O)C(=O)N1 (stereo unspecified) [Thalidomide] (100 nM) | 98.1% | 95.6% | 98.3% | 103% | 95.6% | 101% | 101% | 95.2% | 95.7% | 93.6% | 97.4% | 97.7% | 102% | 105% | 98.9% | 100% | 94.5% | 99.6% | 95.9% | 87.4% | 106% | 106% | 102% | 107% | 97.9% | 104% | 98.8% | 99.8% | 127% | 79.1% | 101% | 95.2% | 109% | 103% | 94.8% | 96.6% | 103%
CN[C@@H]1C[C@H]2O[C@@](C)([C@@H]1OC)n1c3ccccc3c3c4c(c5c6ccccc6n2c5c31)C(=O)N[C@H]4O [UCN-01] (100 nM) | 54.4% | 25% | 52.1% | 33.1% | 44.2% | 52% | 62.4% | 37% | 70.9% | 48.2% | 109% | 39.4% | 77.8% | 68.3% | 24% | 39% | 19.5% | 14.1% | 63.1% | 92.9% | 40.7% | 62.6% | 80.8% | 54.8% | 77.1% | 90.4% | 88.8% | 80.2% | 76.9% | 86% | 91.2% | 50.5% | 75.5% | 56.1% | 55% | 85.5% | 84.4%
CCC1=C[C@@H]2CN(C1)Cc1c([nH]c3ccccc13)[C@@](C(=O)OC)(c1cc3c(cc1OC)N(C)[C@H]1[C@@](O)(C(=O)OC)[C@H](OC(C)=O)[C@]4(CC)C=CCN5CC[C@]31[C@@H]54)C2 [Vinorelbine] (100 nM) | 71.4% | 74.9% | 31.6% | 70.2% | 31.1% | 38.8% | 59.7% | 58.1% | 59.8% | 21% | 42.8% | 10.4% | 91.7% | 75.8% | 59.5% | 68.2% | 48.1% | 62.8% | 45.6% | 88.4% | 71.5% | 80.3% | 76.3% | 51.3% | 90.9% | 83.8% | 84.8% | 59.8% | 29.7% | 67.3% | 101% | 93.5% | -12.8% | 28.6% | 49.2% | 90.6% | 85.7%
